Experimental data as given in patent US11673916B2, “Neuroprotective peptides and methods of their use” (University of Pittsburgh—Of the Commonwealth System of …, priority 2020, dated 2023).

System: cortical neurons
Assay: Cell toxicity assay (LDH release) after excitotoxic TBOA treatment
Format: cell-based, rat
Settings: 3 μM peptide, TBOA 60 μM, LDH 24 h after initial TBOA treatment, mean±SEM (FIG. 4D)
Experimental: Cortical neurons were pre-treated with vehicle, TAT-DP-2 (3 μM), or TAT-Sc-2 (3 μM) for 2 hours in HEPES-buffered minimal essential media with 0.01% bovine serum albumin (MHB). Next, cells with the same peptide concentrations along with either vehicle or 60 μM DL-threo-β-benzyloxyaspartic acid (TBOA) for 6 hours. Each well was washed two times with either 0.5 mL of vehicle or 60 μM TBOA and neurons were incubated overnight. Twenty-four hours following initial TBOA treatment, media was collected for lactate dehydrogenase assays (Sigma Aldrich, St. Louis, Mo.). Relative toxicity was quantified by calculating the ratio of LDH concentration in TBOA-treated over non-TBOA-treated wells. […]
With evidence that TAT-DP-2-mediated declustering prevents enhancement of pro-apoptotic Kv2.1 potassium currents following injury, the neuroprotective actions of TAT-DP-2 in cortical neurons in vitro were next tested. […] Neurotoxicity was assessed by the release of lactate dehydrogenase (LDH) into the culture medium, as described previously (Aras, et al., Curr Protoc Neurosci. 44: 7.18.1-7.18.15, 2008). […] Based on these findings, the potential neuroprotective actions of TAT-DP-2 were evaluated in an in vivo model of ischemia-reperfusion injury, where a substantial contribution of Kv2.1-enabled neuronal cell death has been previously observed (Yeh et al., J Neurosci. 37: 5648-5658, 2017).

Sequence | mean relative toxicity ([LDH]TBOA/[LDH]Veh)
YGRKKRRQRRRDFSSIST [TAT-Sc-2, TAT-linked scramble control peptide] | 1.57±0.15
YGRKKRRQRRRSIDSFTS [TAT-DP-2, TAT-linked declustering peptide 2] | 1.01±0.15
